According to patent US10792305B2, “Therapeutic immune modulation using noble gas compositions” (NOBILIS THERAPEUTICS, INC., priority 2015, dated 2020):
Entries after “also recorded” stand apart in the source; their conditions may differ.

Legend:
PTSD = conditions: 20 mg/day and 40 mg/day, cited from earlier work
[1] = tested on: severely disruptive symptoms related to autistic disorder; conditions: pentoxifylline titrated to 600 mg/day with risperidone up to 3 mg/day, 10 weeks, versus placebo+risperidone; cited from earlier work
[2] = tested on: behavioral symptoms of children with ASD; conditions: 30 or 60 mg per day p.o. for 3-4 months, 25 children; cited from earlier work
[3] = tested on: IL-12 production from dendritic cells; assay: Induced IL-12 production by dendritic cells, ELISA; format: cell-based, human; conditions: CD1c dendritic cells; 1 ug/ml LPS and 10 μM amyloid beta peptide Aβ (1-42) for 24 h; supernatant ELISA
Description: Monocytes from adherent PBMC were isolated as described in Example 1. Dendritic cells were generated by 7 day culture in IL-4 (10 ng/ml) and GM-CSF (20 ng/ml). Media was changed every two days. On day 7, purification of CD1c dendritic cells was performed and cells were cultured in control media, 1 ug/ml LPS and 10 μM of amyloid beta peptide Aβ (1-42) for 24 h. Supernatant was collected and assessed for IL-12 production by ELISA.

[4] = tested on: TNF-alpha production from monocytes; assay: Induced TNF-alpha production by monocytes (adherent PBMC), ELISA; format: cell-based, human; conditions: 30% xenon by volume for 1 or 2 hours; 1 ug/ml LPS and 10 μM amyloid beta peptide Aβ (1-42) for 24 h; supernatant ELISA
Description: 10 ml of heparinized blood was extracted from healthy volunteers and peripheral blood mononuclear cells were isolated by centrifugation over a ficoll gradient. Cells were subsequently washed in 2× volume phosphate buffered saline, and resuspended in RPMI media supplemented with 10% fetal calf serum. Cells were incubated at a concentration of 10 million cells per ml in 6-well plates in a volume of 2 ml per well. Cells were cultured for 24 hours at 37 Celsius in a fully humidified atmosphere with 5% CO2, subsequent to which non-adherent cells were removed by washing with PBS. Adherent cells were subsequently divided into […], one plate incubated at normoxic tissue culture, the second plate cultured for 1 hour in 30% xenon by volume, and the third tissue cultured for 2 hours in 30% volume. Cells were treated with control media, 1 ug/ml LPS and 10 μM of amyloid beta peptide Aβ (1-42) for 24 h. Supernatant was collected and assessed for TNF-alpha production by ELISA.

## Fc1ccc([C@@H]2CCNC[C@H]2COc2ccc3c(c2)OCO3)cc1 [paroxetine]
PTSD; intent-to-treat analysis
  improvement on primary outcome measures compared to placebo: significantly greater improvement
PTSD; versus placebo
  PTSD symptom clusters (reexperiencing, avoidance/numbing, hyperarousal), social and occupational impairment, comorbid depression: statistically significant improvement compared to placebo
PTSD
  tolerability: well tolerated

## CC(=O)CCCCn1c(=O)c2c(ncn2C)n(C)c1=O [pentoxifylline]
[1]
  ABC-C subscale scores (Irritability, Lethargy/Social Withdrawal, Stereotypic Behavior, Hyperactivity/Noncompliance, Inappropriate Speech): greater reduction in ABC-C subscale scores

## CCc1ccc(CCOc2ccc(CC3SC(=O)NC3=O)cc2)nc1 (stereo not shown) [pioglitazone]
[2]
  adverse events: without adverse events

## [Xe] [xenon gas, xenon]
[3]
  induced IL-12 production (FIG. 2): suppression of induced IL-12 production was observed; also recorded: suppression of inducible IL-12 production
[4]
  induced TNF-alpha production (FIG. 1): suppression of induced TNF-alpha production was observed; also recorded: suppression of inducible TNF-alpha production
